Experiment [1] concerns the target human adenosine A3 receptor (Homo sapiens (Human), UniProt P0DMS8). The experiment in a line: Adenosine receptor radioligand binding assay, A3 ([125I]-AB-MECA, HEK293 membranes). The following applies: radioligand [125I]-AB-MECA, HEK293 membrane preparation; Cheng-Prusoff. As for the experimental part: (§1) B-2. Adenosine Receptor Binding Assays
(§2) The binding properties of the test compounds on adenosine receptors were determined in binding studies with radioligands. For this purpose, membrane preparations of the human adenosine receptor subtypes were produced from cell lines having recombinant receptor expression (CHO cells for the A1 receptor, HEK293 cells for the A2a, A2b and A3 receptors). The following radioligands were used in the experiments: [^3H]-DPCPX for the A1 receptor, [^3H]-CGS 21680 for the A2a receptor, [^3H]-CPX for the A2b receptor and [^125I]-AB-MECA for the A3 receptor. The test substances were each tested in 8 different concentrations and 2 repeat tests per concentration. The displacement of the particular radioligand by the test compound was expressed as percentage inhibition of the specific binding of the controls. The IC50 values (concentration which brings about half-maximum inhibition of the specific binding of the controls) and the Hill coefficients (nH) were determined by a non-linear regression analysis, using the competition curves obtained from the mean values of the repeat tests and conducting a curve fit according to the Hill equation: Y=D+[A−D/1+(C/C50)^nH] (Y=specific binding; A=left-hand asymptote of the curve; D=right-hand asymptote of the curve; C=substance concentration; C50=IC50; nH=rise factor).
(§3) The inhibition constant (Ki) was calculated by the Cheng-Prusoff equation: Ki=IC50/(1+L/KD) (L=concentration of the radioligand in the assay; KD=receptor affinity of the radioligand for the receptor, determined with a Scatchard plot). [Literature: A1 receptor: Townsend-Nicholson, A. and Schofield, P. R., J. Biol. Chem. 269: 2373-2376 (1994); A2a receptor: Luthin, D. R. et al., Mol. Pharmacol. 47: 307-313 (1995); A2b receptor: Stehle, J. H. et al., Mol. Endocrinol. 6: 384-393 (1992) and Linden et al., Mol. Pharmacol. 56: 705-713 (1999); A3 receptor: Salvatore, C. A. et al., Proc. Natl. Acad. Sci. U.S.A. 90: 10365-10369 (1993) and Jacobson, K. A. et al., Neuropharmacology 36: 1157-1165 (1997)].
(§4) Table 2 below lists the Ki values thus determined from these binding assays for representative working examples: […]

Experiment [2] concerns the target T1, human adenosine A2b receptor (Homo sapiens (Human), UniProt P29275). The experiment is described as follows: Adenosine receptor radioligand binding assay, A2b ([3H]-CPX, HEK293 membranes). As to conditions: radioligand [3H]-CPX, HEK293 membrane preparation; Cheng-Prusoff. The procedure: as §1, §2, §3, §4
Experiment [3] has as its target human adenosine A2a receptor (Homo sapiens (Human), UniProt P29274). The experiment in a line: Adenosine receptor radioligand binding assay, A2a ([3H]-CGS 21680, HEK293 membranes). As to conditions: radioligand [3H]-CGS 21680, HEK293 membrane preparation; Cheng-Prusoff. The procedure:
as §1, §2, §3, §4

Experiment [4] deals with human adenosine A1 receptor (Homo sapiens (Human), UniProt P30542). The experiment in a line: Adenosine receptor radioligand binding assay, A1 ([3H]-DPCPX, CHO membranes). The following applies: radioligand [3H]-DPCPX, CHO membrane preparation; Cheng-Prusoff. The procedure: as §1, §2, §3, §4
Sequence of human adenosine A1 receptor (P30542 whole entry): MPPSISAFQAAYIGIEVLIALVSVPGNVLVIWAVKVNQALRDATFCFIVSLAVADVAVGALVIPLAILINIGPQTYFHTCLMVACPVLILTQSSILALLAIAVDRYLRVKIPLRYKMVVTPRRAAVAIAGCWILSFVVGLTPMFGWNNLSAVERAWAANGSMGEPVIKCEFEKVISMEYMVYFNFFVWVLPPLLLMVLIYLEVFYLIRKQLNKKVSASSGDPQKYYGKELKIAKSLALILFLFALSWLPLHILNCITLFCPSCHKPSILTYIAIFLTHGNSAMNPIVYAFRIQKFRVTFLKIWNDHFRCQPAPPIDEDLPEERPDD
Experiment [5] deals with T1, human adenosine A2b receptor. The experiment is described as follows: Cellular in vitro reporter gene test for A2b receptor activity (CHO-K1, CRE-luciferase, NECA stimulation). The following applies: recombinant CHO-K1 cell line, CRE-luciferase reporter, antagonism of EC50 concentration of NECA; in some cases means of several determinations, rounded to two significant figures; read-out: A2b receptor IC50. It counts as cell-based. The procedure, abridged:
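CHO-K1 cells with CRE-driven luciferase; antagonists co-incubated with NECA at its EC50, determined in a pre-experiment on each test day. Luciferase read by luminescence 3 h after NECA addition.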
On the technique in general: In a reporter assay the amount or activity of a reporter protein is the signal.

In experiment [6] the test system is bladder tumours and breast tumours. The following applies: bladder and breast tumour animal models; cited from earlier work.
In experiment [7] the test system is prostate cancer cell lines. As to conditions: A2b receptor antagonist; cited from earlier work.
In the next experiment the test system is melanoma animal models. The following applies: cited from earlier work.
For experiment [8], the system named is IL-6 release by human fibroblast cell line LL29. The experiment in a line: NECA-induced IL-6 release by LL29 fibroblasts (ELISA). The following applies: LL29 cells, NECA 10 μM, 24 hours incubation, IL-6 in supernatant by ELISA. The format is cell-based. As for the experimental part: B-3. Measurement of NECA-Induced IL-6 Release by LL29 Fibroblasts
Stimulation of fibroblasts with adenosine or the adenosine analog 5′-N-ethylcarboxamidoadenosine (NECA) leads to release of the pro-inflammatory and pro-fibrotic cytokine IL-6 which can be prevented by inhibition of the A2b receptor.
Accordingly, confluent cells of the human fibroblast cell line LL29 were treated with the test substances and stimulated with NECA (10 μM). After an incubation time of 24 hours, the cell supernatant is removed and human IL-6 in the cell supernatant is determined by ELISA (Quantikine® IL6 ELISA, R&D Systems, Minneapolis, USA).
Table 3 below lists the IC50 values obtained in this way for inhibition of IL-6 release for some working examples: […]

For experiment [9], the system named is human pulmonary arterial endothelial and smooth muscle cells. As to conditions: stimulation with adenosine analogue; cited from earlier work.
In a further experiment the test system is human fibroblasts. The following applies: stimulation with adenosine analogue; increased by hypoxia; cited from earlier work.
Another experiment concerns colon cancer cell lines. As to conditions: A2b receptor antagonist; cited from earlier work.

The values that follow come from US10428083B2, “Heterocyclylmethyl-thienouracile as antagonists of the adenosine-A2B-receptor” (BAYER PHARMA AKTIENGESELLSCHAFT, priority 2015, dated 2019).

As a reminder, the Ki is the equilibrium dissociation constant of an inhibitor or competing ligand from its target. A low value points to higher affinity. A word on the IC50: it is the concentration that inhibits the measured activity by half.

Each structure is given as a SMILES string.

Sequence of human adenosine A3 receptor (P0DMS8 whole entry): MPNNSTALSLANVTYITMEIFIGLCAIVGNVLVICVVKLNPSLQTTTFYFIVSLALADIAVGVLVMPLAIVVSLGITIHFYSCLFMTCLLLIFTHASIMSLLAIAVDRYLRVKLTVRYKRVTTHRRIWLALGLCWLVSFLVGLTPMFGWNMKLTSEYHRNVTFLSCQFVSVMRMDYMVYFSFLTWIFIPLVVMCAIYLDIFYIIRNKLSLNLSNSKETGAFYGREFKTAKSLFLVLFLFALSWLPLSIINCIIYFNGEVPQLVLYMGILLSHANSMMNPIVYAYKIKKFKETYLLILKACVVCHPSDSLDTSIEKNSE
T1 sequence (P29275 whole entry): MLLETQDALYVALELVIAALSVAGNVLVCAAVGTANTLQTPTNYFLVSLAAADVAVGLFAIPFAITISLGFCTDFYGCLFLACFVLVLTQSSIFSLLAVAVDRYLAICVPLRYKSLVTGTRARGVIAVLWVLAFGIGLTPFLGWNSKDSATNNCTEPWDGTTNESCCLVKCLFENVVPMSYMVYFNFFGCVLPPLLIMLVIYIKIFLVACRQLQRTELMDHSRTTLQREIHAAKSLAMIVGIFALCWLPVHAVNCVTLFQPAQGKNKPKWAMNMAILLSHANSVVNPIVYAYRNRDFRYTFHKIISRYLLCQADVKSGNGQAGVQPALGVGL
Sequence of human adenosine A2a receptor (P29274 whole entry): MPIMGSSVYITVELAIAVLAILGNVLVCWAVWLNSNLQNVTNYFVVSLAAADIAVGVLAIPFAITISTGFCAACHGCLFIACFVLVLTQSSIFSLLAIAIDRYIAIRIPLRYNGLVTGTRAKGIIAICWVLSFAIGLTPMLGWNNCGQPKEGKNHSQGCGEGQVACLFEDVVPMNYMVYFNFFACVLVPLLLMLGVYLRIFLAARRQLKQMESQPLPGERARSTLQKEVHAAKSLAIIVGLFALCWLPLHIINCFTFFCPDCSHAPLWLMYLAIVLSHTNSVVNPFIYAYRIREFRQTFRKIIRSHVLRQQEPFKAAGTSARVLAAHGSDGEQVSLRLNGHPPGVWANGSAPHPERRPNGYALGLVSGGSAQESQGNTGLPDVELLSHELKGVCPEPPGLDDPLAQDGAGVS

Consider `COCCn1c(=O)n(C(C)C)c(=O)c2c(C)c(CN3CCNC3=O)sc21` [Example 86, 3-Isopropyl-1-(2-methoxyethyl)-5-methyl-6-[(2-oxoimidazolidin-1-yl)methyl]thieno[2,3-d]pyrimidine-2,4(1H,3H)-dione], for which the Ki in [1] was determined as 160000 nM; in [2], 2.7 nM; in experiment [3], 270 nM; in [4], 1100 nM. Moreover, the half-inhibitory concentration (IC50) in experiment [5] came out at 6.4 nM.
On to `CCCn1c(=O)n(C2CC2)c(=O)c2[nH]c(-c3ccc(N(CC)C(=O)c4cccnc4)nc3)nc21` [ATL801], for which, in experiment [6], the metastasis result is “distinct reduction in metastasis” and the tumour growth result was “slowing of tumour growth”.
On to `CCCn1c(=O)[nH]c2nc(-c3ccc(S(=O)(=O)N4CCN(c5ccc(Cl)cc5)CC4)cc3)[nH]c2c1=O` [PSB603], for which the “growth of several prostate cancer cell lines” value in experiment [7] is reported as “reduces the growth”. The “tumour growth and metastasis” value in the experiment on melanoma animal models is “reduction in tumour growth and metastasis”.
As for `CCn1c(=O)c2c(C)c(CN3CCNC3=O)sc2n(CCOC)c1=O` [Example 59, 3-Ethyl-1-(2-methoxyethyl)-5-methyl-6-[(2-oxoimidazolidin-1-yl)methyl]thieno[2,3-d]pyrimidine-2,4(1H,3H)-dione], the Ki came to 11000 nM in experiment [1], 2.4 nM in experiment [2], 120 nM in [3] and 330 nM in experiment [4]. Further, the 50% inhibitory concentration (IC50) in experiment [5] was 5.1 nM.
Consider `COCCn1c(=O)n(CCc2ccccc2)c(=O)c2c(C)c(CN3CCCC3=O)sc21` [Example 3, 1-(2-Methoxyethyl)-5-methyl-6-[(2-oxopyrrolidin-1-yl)methyl]-3-(2-phenylethyl)thieno[2,3-d]pyrimidine-2,4(1H,3H)-dione], for which the IC50 in experiment [8] amounted to 15 nM; in experiment [5] it was 4.4 nM.
For `CCn1c(=O)c2c(C)c(Cn3nc[nH]c3=O)sc2n(CCC(F)(F)F)c1=O` [Example 113, 3-Ethyl-5-methyl-6-[(5-oxo-4,5-dihydro-1H-1,2,4-triazol-1-yl)methyl]-1-(3,3,3-trifluoropropyl)thieno[2,3-d]pyrimidine-2,4(1H,3H)-dione], the Ki was found to be 6.4 nM in experiment [2], 1700 nM in experiment [3] and 1500 nM in experiment [4]. Further, the IC50 in experiment [5] stood at 8.1 nM.
Regarding `CCn1c(=O)c2c(C)c(Cn3cc[nH]c3=O)sc2n(CCOC)c1=O` [Example 109, 3-Ethyl-1-(2-methoxyethyl)-5-methyl-6-[(2-oxo-2,3-dihydro-1H-imidazol-1-yl)methyl]thieno[2,3-d]pyrimidine-2,4(1H,3H)-dione], the Ki worked out at 14000 nM in experiment [1], 2.8 nM in experiment [2], 100 nM in experiment [3] and 590 nM in experiment [4]. Besides, in experiment [5], the half-maximal inhibitory concentration (IC50) amounted to 4.2 nM.
Turning to `COCCn1c(=O)n(CCc2ccccc2)c(=O)c2c(C)c(CN3CCN(C)C3=O)sc21` [Example 102, 1-(2-Methoxyethyl)-5-methyl-6-[(3-methyl-2-oxoimidazolidin-1-yl)methyl]-3-(2-phenylethyl)thieno[2,3-d]pyrimidine-2,4(1H,3H)-dione], the IC50 was determined as 5 nM in experiment [8] and 4.5 nM in [5].
Regarding `CCNC(=O)[C@H]1O[C@@H](n2cnc3c(N)ncnc32)[C@H](O)[C@@H]1O` [NECA, 5′-(N-ethylcarboxamido)adenosine], the “release of ET-1 and IL-6” value in experiment [9] was “release of ET-1 and IL-6”. The “release of IL-6” value with human fibroblasts is reported as “release of IL-6”.
On to `CCn1c(=O)c2c(C)c(CN3CCNC3=O)sc2n(CC2CCO2)c1=O` (single isomer, unassigned; enantiomer 1) [Example 66, 3-Ethyl-5-methyl-1-(oxetan-2-ylmethyl)-6-[(2-oxoimidazolidin-1-yl)methyl]thieno[2,3-d]pyrimidine-2,4(1H,3H)-dione (Enantiomer 1)], for which the Ki was determined as 6800 nM in experiment [1], 5.2 nM in experiment [2], 280 nM in experiment [3] and 950 nM in [4]. Moreover, the IC50 in [5] worked out at 4.3 nM.
`CCn1c(=O)c2c(C)c(Cn3cn[nH]c3=O)sc2n(CCC(F)(F)F)c1=O` [Example 116, 3-Ethyl-5-methyl-6-[(5-oxo-1,5-dihydro-4H-1,2,4-triazol-4-yl)methyl]-1-(3,3,3-trifluoropropyl)thieno[2,3-d]pyrimidine-2,4(1H,3H)-dione]: the Ki worked out at 330 nM in [1], 12 nM in experiment [2], 790 nM in experiment [3] and 3300 nM in experiment [4]. Moreover, in [5], the IC50 came to 24 nM.
Regarding `CCCn1c(=O)c2[nH]c(-c3ccc(OCC(=O)Nc4ccc(C#N)cc4)cc3)nc2n(CCC)c1=O` [MRS1754], the “growth of colon cancer cell lines” value in the experiment on colon cancer cell lines is recorded as “reduced growth”.
For `COCCn1c(=O)n(CCc2ccccc2)c(=O)c2c(C)c(CN3CCOC3=O)sc21` [Example 20, 1-(2-Methoxyethyl)-5-methyl-6-[(2-oxo-,3-oxazolidin-3-yl)methyl]-3-(2-phenylethyl)thieno[2,3-d]pyrimidine-2,4(1H,3H)-dione], the figures for the IC50 in experiment [8] and in [5] were 5 nM and 3.6 nM, respectively.
In the case of `COCCn1c(=O)n(CCc2ccccc2)c(=O)c2c(C)c(CN3CCCS3(=O)=O)sc21` [Example 15, 6-[(1,1-Dioxido-1,2-thiazolidin-2-yl)methyl]-1-(2-methoxyethyl)-5-methyl-3-(2-phenylethyl)thieno[2,3-d]pyrimidine-2,4(1H,3H)-dione], the IC50 in experiment [5] stood at 3.1 nM.
Take `COCCn1c(=O)c2c(C)c(CN3CCNC3=NC(=O)OC)sc2n(CC2CCCO2)c1=O` (single isomer, unassigned) [Example 392, Methyl [1-f{[3-(2-methoxyethyl)-5-methyl-2,4-dioxo-1-(tetrahydrofuran-2-ylmethyl)-1,2,3,4-tetrahydrothieno[2,3-d]pyrimidin-6-yl]methyl}imidazolidin-2-ylidene]carbamate]: the IC50 in experiment [5] turned out to be 56 nM.
As to `Cc1c(CN2CCNC2=O)sc2c1c(=O)n(CC(C)C)c(=O)n2CCC(F)(F)F` [Example 87, 3-Isobutyl-5-methyl-6-[(2-oxoimidazolidin-1-yl)methyl]-1-(3,3,3-trifluoropropyl)thieno[2,3-d]pyrimidine-2,4(1H,3H)-dione], the half-maximal inhibitory concentration (IC50) in [5] was 2.3 nM.
For the compound `COC(=O)N=C1NCCN1Cc1sc2c(c1C)c(=O)n(CC(F)(F)F)c(=O)n2CC1CCCO1` (single isomer, unassigned) [Example 468, Methyl [1-{[5-methyl-2,4-dioxo-1-(tetrahydrofuran-2-ylmethyl)-3-(2,2,2-trifluoroethyl)-1,2,3,4-tetrahydrothieno[2,3-d]pyrimidin-6-yl]methyl}imidazolidin-2-ylidene]carbamate], in experiment [5], the IC50 turned out to be 6.1 nM.
